Patent US6949648B2, “Condensed pyrazole derivatives, process for producing the same and use thereof” (Takeda Pharmaceutical Company Limited, priority 2000, dated 2005)
Structures can show the parent of a compound that is named as a salt.

Compound	melting point [°C]
Cc1nn(Cc2ccccn2)c2[nH]c3ccccc3c(=O)c12 [Example 2-189, 3-Methyl-1-(2-pyridinylmethyl)-1,9-dihydro-4H-pyrazolo[3,4-b]quinolin-4-one]	269 to 272
Cc1nn(-c2ccccn2)c2[nH]c3ccc(Cl)cc3c(=O)c12 [Example 2-72, 6-Chloro-3-methyl-1-(2-pyridinyl)-1,9-dihydro-4H-pyrazolo[3,4-b]quinolin-4-one]	254 to 255
COc1cccc(-n2nc(C)c3c(N)c4cccc(C)c4nc32)n1 [Example 2-127, 3,8-Dimethyl-1-(6-methoxy-2-pyridinyl)-1H-pyrazolo[3,4-b]quinolin-4-ylamine]	134 to 137
CCCc1c2ccccc2nc2c1c(C)nn2-c1ccccn1 [Example 2-103, 3-Methyl-4-propyl-1-(2-pyridinyl)-1H-pyrazolo[3,4-b]quinoline]	108 to 109
Cc1nn(-c2ccccn2)c2[nH]c3cc([N+](=O)[O-])ccc3c(=O)c12 [Example 2-58, 3-Methyl-7-nitro-1-(2-pyridinyl)-1,9-dihydro-4H-pyrazolo[3,4-b]quinolin-4-one]	> 300
COc1ccc2nc3c(c(C)nn3-c3ccccn3)c(Cl)c2c1 [Example 2-41, 4-Chloro-6-methoxy-3-methyl-1-(2-pyridinyl)-1H-pyrazolo[3,4-b]quinoline]	186 to 187
O=C(O)Cc1nn(-c2ccccn2)c2[nH]c3ccccc3c(=O)c12 [Example 2-177, 2-[4-Oxo-1-(2-pyridinyl)-4,9-dihydro-1H-pyrazolo[3,4-b]quinolin-3-yl]acetic acid]	229 to 231
Cc1nn(-c2ccccn2)c2nc3cc(Cl)c(F)cc3c(Cl)c12 [Example 2-96, 4,7-Dichloro-6-fluoro-3-methyl-1-(2-pyridinyl)-1H-pyrazolo[3,4-b]quinoline]	214 to 215
Cc1nn(-c2ccccn2)c2[nH]c3cccc(C(=O)O)c3c(=O)c12 [Example 2-62, 3-Methyl-4-oxo-1-(2-pyridinyl)-4,9-dihydro-1H-pyrazolo[3,4-b]quinoline-5-carboxylic acid]	303 to 306
Cc1nn(-c2ccncc2)c2nc3ccccc3c(Cl)c12 [Example 2-140, 4-Chloro-3-methyl-1-(4-pyridinyl)-1H-pyrazolo[3,4-b]quinoline]	165 to 168
Cc1nn(-c2ccccn2)c2[nH]c3ccsc3c(=O)c12 [Example 2-156, 3-Methyl-1-(2-pyridinyl)-1,8-dihydro-4H-pyrazolo[3,4-b]thieno[2,3-e]pyridin-4-one]	228 to 229
Cc1nn(-c2ccccn2)c2nc(O)c3c(c12)CCC3 [Example 1-28, 1-Methyl-3-(2-pyridinyl)-3,6,7,8-tetrahydrocyclopenta[d]pyrazolo[3,4-b]pyridin-5-ol]	255 to 256
Cc1nn(-c2ccccn2)c2nc3ccccc3c(C#N)c12 [Example 2-107, 3-Methyl-1-(2-pyridinyl)-1H-pyrazolo[3,4-b]quinoline-4-carbonitrile]	210 to 211
Cc1nn(-c2cccnc2)c2nc3ccccc3c(N)c12.Cl.Cl	234 to 237
Cc1cc(O)nc2c1c(C)nn2-c1ccccn1 [Example 1-23, 3,4-Dimethyl-1-(2-pyridinyl)-1H-pyrazolo[3,4-b]pyridin-6-ol]	254 to 255
Cc1nn(-c2ccccn2)c2nccc(OCc3ccccc3)c12 [Example 1-32, 4-(Benzyloxy)-3-methyl-1-(2-pyridinyl)-1H-pyrazolo[3,4-b]pyridine]	108 to 110
Cc1nc2c(c(C)nn2-c2ccccn2)c(O)c1Cc1ccccc1 [Example 1-20, 5-Benzyl-3,6-dimethyl-1-(2-pyridinyl)-1H-pyrazolo[3,4-b]pyridin-4-ol]	181 to 182
Cc1nn(-c2ccccn2)c2[nH]c3cc(F)c(F)cc3c(=O)c12.O (hydrate or solvate) [Example 2-92, 6,7-Difluoro-3-methyl-1-(2-pyridinyl)-1,9-dihydro-4H-pyrazolo[3,4-b]quinolin-4-one monohydrate]	273 to 275
COC(=O)c1ccc2nc3c(c(C)nn3-c3ccccn3)c(Cl)c2c1 [Example 2-63, Methyl 4-chloro-3-methyl-1-(2-pyridinyl)-1H-pyrazolo[3,4-b]quinoline-6-carboxylate]	199 to 200
Cc1nn(-c2ccccn2)c2nc3ccc(F)cc3c(Cl)c12 [Example 2-80, 4-Chloro-6-fluoro-3-methyl-1-(2-pyridinyl)-1H-pyrazolo[3,4-b]quinoline]	185 to 187
CCOC(=O)c1cnc2c(cnn2-c2ccccn2)c1O [Example 1-6, Ethyl 4-hydroxy-1-(2-pyridinyl)-1H-pyrazolo[3,4-b]pyridine-5-carboxylate]	195 to 197
Cc1nn(-c2ccccn2)c2[nH]c3c(c(=O)c12)CCCC3 [Example 2-194, 3-Methyl-1-(2-pyridinyl)-1,5,6,7,8,9-hexahydro-4H-pyrazolo[3,4-b]quinolin-4-one]	172 to 173
Cc1c(O)nc2c(c(C)nn2-c2ccccn2)c1C [Example 1-24, 3,4,5-Trimethyl-1-(2-pyridinyl)-1H-pyrazolo[3,4-b]pyridin-6-ol]	226 to 228

Compound	melting point [°C]
O=c1c2cnn(-c3ccccn3)c2[nH]c2cccc(F)c12 [Example 2-163, 5-Fluoro-1-(2-pyridinyl)-1,9-dihydro-4H-pyrazolo[3,4-b]quinolin-4-one]	278 to 281
Cc1nn(-c2ccccn2)c2nc3ccccc3c(N3CCOCC3)c12 [Example 2-11, 3-Methyl-4-(4-morpholinyl)-1-(2-pyridinyl)-1H-pyrazolo[3,4-b]quinoline]	203 to 205
Cc1ccc2nc3c(c(C)nn3-c3ccccn3)c(N)c2c1.Cl	287 to 290
CCCOc1c2cc(F)c(F)cc2nc2c1c(C)nn2-c1ccccn1 [Example 2-94, 6,7-Difluoro-3-methyl-4-propoxy-1-(2-pyridinyl)-1H-pyrazolo[3,4-b]quinoline]	162 to 163
Cc1nn(-c2ccccn2)c2[nH]c3cc(Cl)ccc3c(=O)c12 [Example 2-74, 7-Chloro-3-methyl-1-(2-pyridinyl)-1,9-dihydro-4H-pyrazolo[3,4-b]quinolin-4-one]	274 to 275
CCOC(=O)c1nn(-c2ccccn2)c2nc3ccccc3c(Cl)c12 [Example 2-179, Ethyl 4-chloro-1-(2-pyridinyl)-1H-pyrazolo[3,4-b]quinoline-3-carboxylate]	164 to 166
Cc1nn(-c2ccccn2)c2[nH]c3c(F)cccc3c(=O)c12 [Example 2-85, 8-Fluoro-3-methyl-1-(2-pyridinyl)-1,9-dihydro-4H-pyrazolo[3,4-b]quinolin-4-one]	241
Cc1ccc(-n2nc(C)c3c(Cl)c4cccc(C)c4nc32)nc1 [Example 2-131, 4-Chloro-3,8-dimethyl-1-(5-methyl-2-pyridinyl)-1H-pyrazolo[3,4-b]quinoline]	165 to 168
Cc1nn(-c2ccccn2)c2[nH]c3ccc(N)cc3c(=O)c12 [Example 2-55, 6-Amino-3-methyl-1-(2-pyridinyl)-1,9-dihydro-4H-pyrazolo[3,4-b]quinolin-4-one]	260 to 262
Cc1nn(-c2ccccn2)c2[nH]c3ccc(Br)cc3c(=O)c12 [Example 2-87, 6-Bromo-3-methyl-1-(2-pyridinyl)-1,9-dihydro-4H-pyrazolo[3,4-b]quinolin-4-one]	240 to 242
Cc1nn(-c2ccccn2)c2nc3ccccc3c(Cl)c12 [Example 1-34, 4-Chloro-3-methyl-1-(2-pyridinyl)-1H-pyrazolo[3,4-b]quinoline]	157 to 159
Cc1nn(-c2ccccn2)c2nc3ccccc3c(C)c12 [Example 2-101, 3,4-Dimethyl-1-(2-pyridinyl)-1H-pyrazolo[3,4-b]quinoline]	157 to 159
Cc1nn(-c2nccs2)c2nc3ccccc3c(N)c12 [Example 2-150, 3-Methyl-1-(1,3-thiazol-2-yl)-1H-pyrazolo[3,4-b]quinolin-4-ylamine]	261 to 263
O=c1c2cc(F)c(F)cc2[nH]c2c1cnn2-c1ccccn1 [Example 2-199, 6,7-Difluoro-1-(2-pyridinyl)-1,9-dihydro-4H-pyrazolo[3,4-b]quinolin-4-one]	> 300
Cc1nn(-c2ccc(Cl)cn2)c2nc3ccccc3c(Cl)c12 [Example 2-113, 4-Chloro-1-(5-chloro-2-pyridinyl)-3-methyl-1H-pyrazolo[3,4-b]quinoline]	216 to 217
Cc1nn(-c2ncccn2)c2nc3ccccc3c(N)c12 (as salt: hydrochloride) [Example 1-65, 3-Methyl-1-(2-pyrimidinyl)-1H-pyrazolo[3,4-b]quinolin-4-ylamine hydrochloride]	287 to 290
Cc1cccc2c(N)c3c(C)nn(-c4ccc5ccccc5n4)c3nc12 [Example 2-153, 3,8-Dimethyl-1-(2-quinolinyl)-1H-pyrazolo[3,4-b]quinolin-4-ylamine]	273 to 276
Cc1nn(-c2ccncc2)c2[nH]c3cc(F)c(F)cc3c(=O)c12.Cl.Cl	237 to 240
Cc1nn(-c2ccc(Cl)cn2)c2[nH]c3ccccc3c(=O)c12 [Example 2-114, 1-(5-Chloro-2-pyridinyl)-3-methyl-1,9-dihydro-4H-pyrazolo[3,4-b]quinolin-4-one]	262 to 263
Cc1nn(-c2ccccn2)c2nc3cc(Cl)ccc3c(Cl)c12 [Example 2-73, 4,7-Dichloro-3-methyl-1-(2-pyridinyl)-1H-pyrazolo[3,4-b]quinoline]	203 to 204
Clc1c2ccccc2nc2c1cnn2-c1ccccn1 [Example 2-157, 4-Chloro-1-(2-pyridinyl)-1H-pyrazolo[3,4-b]quinoline]	153 to 156
Cc1nn(-c2ccccn2)c2nc3ncccc3c(Cl)c12 [Example 2-196, 4-Chloro-3-methyl-1-(2-pyridinyl)-1H-pyrazolo[3,4-b][1, 8]naphthyridine]	204 to 205
Cc1nn(-c2ccccn2)c2nc3ccccc3c(SC(C)C)c12 [Example 2-25, 4-(Isopropylsulfanyl)-3-methyl-1-(2-pyridinyl)-1H-pyrazolo[3,4-b]quinoline]	113 to 114
